# Experimental data: paper PMC4767141, “Discovery of Potent, Orally Bioavailable, Small-Molecule Inhibitors of WNT Signaling from a Cell-Based Pathway Screen” (Journal of Medicinal Chemistry, 2015)
# Where two headings read alike, the source gives them in different places.
# Assays:
# [1] = In vivo mouse PK; conditions: iv dosing
# [2] = Aqueous (thermodynamic) solubility; assay type: physicochemical; conditions: phosphate buffer pH 7.4
# [3] = target: CYP450 2B8 (Homo sapiens, UniProt P20813); assay: CYP450 inhibition
# Sequence of CYP450 2B8 (P20813 whole entry): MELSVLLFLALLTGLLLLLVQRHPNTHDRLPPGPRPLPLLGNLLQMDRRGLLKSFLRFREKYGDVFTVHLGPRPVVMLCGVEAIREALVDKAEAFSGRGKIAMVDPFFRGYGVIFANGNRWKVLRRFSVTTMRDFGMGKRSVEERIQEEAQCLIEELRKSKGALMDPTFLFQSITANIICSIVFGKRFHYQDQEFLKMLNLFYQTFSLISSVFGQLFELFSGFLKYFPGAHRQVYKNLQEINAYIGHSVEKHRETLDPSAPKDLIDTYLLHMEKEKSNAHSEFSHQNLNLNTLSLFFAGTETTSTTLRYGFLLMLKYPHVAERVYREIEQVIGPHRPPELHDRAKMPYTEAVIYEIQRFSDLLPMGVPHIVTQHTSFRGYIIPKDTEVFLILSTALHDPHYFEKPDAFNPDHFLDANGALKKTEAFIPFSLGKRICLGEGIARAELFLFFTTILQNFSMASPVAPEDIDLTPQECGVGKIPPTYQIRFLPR
# [4] = target: CYP450 1A2 (Homo sapiens, UniProt P05177); assay: CYP450 inhibition
# Sequence of CYP450 1A2 (P05177 whole entry): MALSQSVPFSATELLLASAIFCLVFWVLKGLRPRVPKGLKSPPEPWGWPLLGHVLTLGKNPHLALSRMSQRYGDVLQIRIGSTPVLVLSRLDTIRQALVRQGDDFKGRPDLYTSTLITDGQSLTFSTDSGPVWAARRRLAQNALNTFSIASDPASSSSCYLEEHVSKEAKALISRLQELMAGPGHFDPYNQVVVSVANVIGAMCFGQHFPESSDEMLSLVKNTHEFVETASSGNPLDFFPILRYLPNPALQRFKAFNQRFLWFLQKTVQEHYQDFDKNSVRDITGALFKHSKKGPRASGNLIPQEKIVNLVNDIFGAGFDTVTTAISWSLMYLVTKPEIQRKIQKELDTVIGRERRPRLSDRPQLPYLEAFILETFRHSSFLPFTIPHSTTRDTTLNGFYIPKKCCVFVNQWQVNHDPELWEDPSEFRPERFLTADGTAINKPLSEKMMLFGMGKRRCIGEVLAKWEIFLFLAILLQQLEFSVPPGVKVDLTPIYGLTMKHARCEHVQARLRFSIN
# [5] = target: CYP450 2D6 (Homo sapiens, UniProt P10635); assay: CYP450 inhibition; assay type: in vitro ADME
# Sequence of CYP450 2D6 (P10635 whole entry): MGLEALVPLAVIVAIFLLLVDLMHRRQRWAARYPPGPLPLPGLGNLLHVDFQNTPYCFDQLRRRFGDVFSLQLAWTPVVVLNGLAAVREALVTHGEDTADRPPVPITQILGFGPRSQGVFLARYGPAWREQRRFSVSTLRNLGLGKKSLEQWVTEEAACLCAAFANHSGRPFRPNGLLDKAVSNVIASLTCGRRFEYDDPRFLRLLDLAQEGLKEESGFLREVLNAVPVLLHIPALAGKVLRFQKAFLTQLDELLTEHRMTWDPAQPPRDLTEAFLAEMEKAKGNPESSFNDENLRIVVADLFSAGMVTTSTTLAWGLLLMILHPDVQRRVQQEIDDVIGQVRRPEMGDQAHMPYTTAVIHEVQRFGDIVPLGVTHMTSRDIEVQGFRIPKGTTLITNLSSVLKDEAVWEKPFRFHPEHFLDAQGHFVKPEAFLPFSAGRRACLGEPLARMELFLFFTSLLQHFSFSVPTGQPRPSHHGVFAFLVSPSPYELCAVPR
# [6] = Caco-2 Papp determination; assay type: in vitro ADME, human
# [7] = target: CYP450 2C19 (Homo sapiens, UniProt P33261); assay: CYP450 inhibition; assay type: in vitro ADME
# Sequence of CYP450 2C19 (P33261 whole entry): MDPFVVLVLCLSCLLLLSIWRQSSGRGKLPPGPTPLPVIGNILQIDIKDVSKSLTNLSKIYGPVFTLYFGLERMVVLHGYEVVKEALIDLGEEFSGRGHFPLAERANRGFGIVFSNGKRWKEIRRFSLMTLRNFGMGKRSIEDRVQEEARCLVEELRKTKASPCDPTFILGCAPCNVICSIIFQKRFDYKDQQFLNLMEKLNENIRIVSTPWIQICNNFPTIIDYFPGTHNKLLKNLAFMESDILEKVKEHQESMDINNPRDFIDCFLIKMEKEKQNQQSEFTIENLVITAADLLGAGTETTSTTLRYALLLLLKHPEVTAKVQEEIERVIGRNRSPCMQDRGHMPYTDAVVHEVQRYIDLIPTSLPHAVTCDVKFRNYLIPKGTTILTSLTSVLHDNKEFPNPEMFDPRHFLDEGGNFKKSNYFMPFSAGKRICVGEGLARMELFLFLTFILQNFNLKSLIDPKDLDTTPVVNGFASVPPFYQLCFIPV
# [8] = target: CYP450 2C9 (Homo sapiens, UniProt P11712); assay: CYP450 inhibition; assay type: in vitro ADME
# Sequence of CYP450 2C9 (P11712 whole entry): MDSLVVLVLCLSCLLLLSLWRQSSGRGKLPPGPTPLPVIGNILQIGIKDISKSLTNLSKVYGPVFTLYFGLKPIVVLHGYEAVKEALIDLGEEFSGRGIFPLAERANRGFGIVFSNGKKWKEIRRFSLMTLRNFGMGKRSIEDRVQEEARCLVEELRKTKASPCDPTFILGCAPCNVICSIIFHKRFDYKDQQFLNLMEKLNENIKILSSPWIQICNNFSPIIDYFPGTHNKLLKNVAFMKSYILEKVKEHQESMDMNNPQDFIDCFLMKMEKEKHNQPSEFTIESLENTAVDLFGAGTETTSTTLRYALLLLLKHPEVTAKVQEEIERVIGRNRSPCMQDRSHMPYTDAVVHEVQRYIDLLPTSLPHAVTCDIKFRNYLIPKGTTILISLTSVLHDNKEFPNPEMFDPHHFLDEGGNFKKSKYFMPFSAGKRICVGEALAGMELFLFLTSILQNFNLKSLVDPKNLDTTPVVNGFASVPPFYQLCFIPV
# [9] = Clint determination; assay type: in vitro ADME; conditions: mouse, microsomes, pH 7.4, mouse microsomes, read-out: Clint (μL/min/mg) Mouse
# [10] = Clint determination; assay type: in vitro ADME; conditions: rat, microsomes, pH 7.4, rat microsomes, read-out: Clint (μL/min/mg) Rat
# [11] = Clint determination; assay type: in vitro ADME; conditions: human, microsomes, pH 7.4, human microsomes, read-out: Clint (μL/min/mg) Human
# [12] = pKa of the pyridine nitrogen; assay type: physicochemical; conditions: measured at Cyprotex
# Method: [32] pKa measurement was conducted at Cyprotex according to their published protocol: .
compound,measurement,setting,value
"NC(=O)C1CCN(c2c(Cl)cncc2-c2ccc(N3CCOCC3)cc2)CC1 [Compound 38, 1-(3-Chloro-5-(4-morpholin-4-ylphenyl)pyridin-4-yl)piperidine-4-carboxamide]",in vivo clearance,[1],greater than liver blood flow
"Cn1cc(-c2ccc(-c3cncc(Cl)c3N3CCC4(CC3)CC(=O)NC4=O)cc2)cn1 [Compound 81, 8-(3-Chloro-5-(4-(1-methyl-1H-pyrazol-4-yl)phenyl)pyridin-4-yl)-2,8-diazaspiro[4.5]decane-1,3-dione]",solubility,[2],< 1 µg/mL
"NC(=O)C1CCN(c2c(Cl)cncc2Cl)CC1 [Compound 9, 1-(3,5-Dichloropyridin-4-yl)piperidine-4-carboxamide]",IC50,[3],> 20 µM
same,IC50,[4],> 20 µM
same,IC50,[5],> 20 µM
same,"Caco-2 efflux (efflux ratio, ER)",[6],no efflux
same,"Papp at 2 h, 1 μM","[6]; human, Caco-2, 1 μM, pH 7.4",36 ×10⁻⁶ cm/s
same,IC50,[7],> 20 µM
same,IC50,[8],> 20 µM
O=C1NCCC12CCN(c1c(Cl)cncc1-c1ccc(N3CCCCC3)cc1)CC2 [Compound 65],microsomal CLint at 1 μM,[9],> 1000 µL/min/mg
"O=C1CC2(CCN(c3c(Cl)cncc3-c3ccc(N4CCOCC4)cc3)CC2)C(=O)N1 [Compound 54, 8-(3-Chloro-5-(4-morpholin-4-ylphenyl)pyridin-4-yl)-2,8-diazaspiro[4.5]decan-1,3-dione]",microsomal CLint at 1 μM,[10],23 µL/min/mg
same,microsomal CLint at 1 μM,[9],54 µL/min/mg
same,microsomal CLint at 1 μM,[11],67 µL/min/mg
O=C1NCCC12CCN(c1c(Cl)cncc1-c1ccc(N3CCOCC3)cc1)C2 (centres unmarked) [Compound 52],microsomal CLint at 1 μM,[9],827 µL/min/mg
same,microsomal CLint at 1 μM,[11],335 µL/min/mg
c1cc(N2CCCCC2)ccn1 [4-(piperidin-1-yl)pyridine],pKa,[12],9.42
O=C1NCCC12CCN(c1c(Cl)cncc1-c1ccc(-c3ccncc3)cc1)CC2 [Compound 69],microsomal CLint at 1 μM,[11],100 µL/min/mg
